Results taken from patent US20240425491A1, “HETEROARYL COMPOUNDS USEFUL IN THE TREATMENT OF COGNITIVE DISORDERS” (University College Cardiff Consultants Limited, priority 2021, published 2024).
Where a name gives a salt, the structure may show the parent alone.

Key:
[1] = target: T1, human recombinant GABAAR containing α5β3γ2 subunits (benzodiazepine site) (Homo sapiens, UniProt P18507+P31644); assay: In vitro radioligand binding assay (α5-GABAAR Ki); details: inhibition of [3H]Ro15-1788 binding, membranes of L(tk−) cells expressing human α5β3γ2; read-out: α5-GABAAR Ki
T1 construct: expressed in transfected cells; host or cells: mouse L(tk−) cells, dexamethasone-inducible vector pMSGneo
Method in brief: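 Displacement of 4 nM [^3H]flumazenil from the benzodiazepine site, read by filtration and scintillation, gave IC50, converted to Ki (Cheng-Prusoff, saturation-derived Kd). Receptor: human α5β3γ2 membranes from L(tk^−) cells, 50 μg protein/well; 1 h, 4° C; TP003 1 μM defined nonspecific binding.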

[2] = target: T2, human α5β3γ2 GABAARs in mouse L(tk−) cells (Homo sapiens, UniProt P18507+P31644); assay: In vitro electrophysiological recording assay (α5-GABAAR relative efficacy), QPatch; assay type: cell-based; details: GABA EC10-20
T2 construct: expressed in transfected cells; host or cells: mouse L(tk−) cells, dexamethasone-inducible vector pMSGneo
Method in brief: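 Whole-cell QPatch recordings at 20-22° C, −65 mV holding, in dexamethasone-induced (1 μM, 24 h) L(tk−) cells. Compound pre-applied ≥1 min, then co-applied with GABA EC10-20; percentage change in leak-corrected peak current, taken at ≥100× Ki, normalised to DMCM efficacy; 0.1% DMSO final.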

[3] = target: T3, human α5β3γ2L GABAA receptors in HEK293 cells (Homo sapiens, UniProt P18507+P31644); assay: In vitro electrophysiological recording assay (α5-GABAAR relative efficacy), SyncroPatch; assay type: cell-based; details: Conc 0.1 μM; GABA EC10-20
T3 construct: expressed in transfected cells
Excerpt: Mouse L(tk^−) cells stably expressing human α1β3γ2, α2β3γ2, α3β3γ2, α5β3γ2 GABAARs generated by transfection of the individual subunits in the dexamethasone-inducible expression vector pMSGneo in mouse L(tk^−) cells (Hadingham et al., 1993, Mol. Pharmacol. 43:970-975 and 1993, Mol. Pharmacol. 44:1211-1218) were used for binding and functional assays. For certain compounds, HEK293 cells stable expressing the human α1β3γ2L, α2β3γ2L, α3β3γ2L and α5β3γ2L GABAA receptors were used to evaluate their functional effects in a SyncroPatch electrophysiology assay.
The efficacy of modulators was evaluated using either the automated patch-clamp platform QPatch16 (Sophion, Copenhagen, Denmark) or the SyncroPatch 384i (Nanion Technologies, Germany). Cells were harvested from flasks by enzymatic dissociation and re-suspended in serum-free medium.
For the Syncropatch recordings, a stacked addition protocol was used, in which GABA was rapidly applied and then washed off from the cell. All experiments were carried out at room temperature (20-22° C.) using a standard whole cell procedure. The currents recorded were acquired at 2 kHz and filtered using a Bessel filter. Whole-cell currents were measured at a holding potential of −80 mV.
For Syncropatch recordings, the extracellular recording solution contained: 140 mM NaCl, 4 mM KCl, 2 mM CaCl2), 1 mM MgCl2, 10 mM HEPES, 5 mM glucose (pH 7.4 and osmolarity of c. 300-310 mOsm/L). The intracellular recording solution contained: 90 mM KCl, 50 mM KF, 1.5 mM MgCl2, 11.1 mM EGTA and 10 mM HEPES (pH 7.2 and osmolarity of c. 300 mOsm/L). 2 mM of NaATP was added to the intracellular solution on the day of testing.
The effects of modulators were evaluated in the presence of a submaximal GABA concentration, giving typically 10-20% activation (GABA EC10-20) of the response elicited by a saturating GABA concentration. For QPatch recordings, to check and ensure baseline current stability before compound addition, five consecutive applications of GABA EC10-20 alone (each application with a 2 s duration, separated by minimum 1 min wash off periods) were performed before compound addition. The test compound was applied using the pipetting system of the QPatch system 1 min at least prior to co-application with GABA EC10-20. For SyncroPatch recordings, GABA EC20 alone was applied three times (1 s long applications, with wash steps in-between) before compound addition. This was followed by a 1-2 min pre-incubation with the test compound and then re-application of GABA EC10-20 in the presence of the compound. Finally, following a further wash step, a saturating concentration of GABA was applied, allowing the accurate evaluation for each cell of the percentage baseline activation elicited by the submaximal GABA applied.
The compounds were first dissolved in DMSO as a 10 mM stock and then further diluted to the testing concentrations so that the final DMSO concentration in the extracellular recording solution was kept constant at 0.1% for the QPatch recordings, or 0.2% for the SyncroPatch recordings.
The % efficacy of modulators was determined from the GABA elicited currents recorded in the presence and absence of the test compound, using the formula:
[((compound peak current−leak)−(GABA peak current−leak))/(GABA peak current−leak)]*100,
where ‘leak’ is the leak baseline current at −65 mV, ‘compound peak current’ is the current elicited by co-application of compound and GABA, and ‘GABA peak current’ is the current elicited by GABA alone during the 5th GABA application. The results were presented as ‘relative efficacy’ for each compound generally at a concentration equal or higher than 100 times their determined Ki. The relative efficacy of a compound was calculated by normalising its efficacy to the efficacy of methyl-6,7-dimethoxy-4-ethyl-beta-carboline-3-carboxylate (DMCM) that was separately determined produced an attenuation of GABA-induced currents of −57±4%, n=5.

T2 sequence (P31644 32-462): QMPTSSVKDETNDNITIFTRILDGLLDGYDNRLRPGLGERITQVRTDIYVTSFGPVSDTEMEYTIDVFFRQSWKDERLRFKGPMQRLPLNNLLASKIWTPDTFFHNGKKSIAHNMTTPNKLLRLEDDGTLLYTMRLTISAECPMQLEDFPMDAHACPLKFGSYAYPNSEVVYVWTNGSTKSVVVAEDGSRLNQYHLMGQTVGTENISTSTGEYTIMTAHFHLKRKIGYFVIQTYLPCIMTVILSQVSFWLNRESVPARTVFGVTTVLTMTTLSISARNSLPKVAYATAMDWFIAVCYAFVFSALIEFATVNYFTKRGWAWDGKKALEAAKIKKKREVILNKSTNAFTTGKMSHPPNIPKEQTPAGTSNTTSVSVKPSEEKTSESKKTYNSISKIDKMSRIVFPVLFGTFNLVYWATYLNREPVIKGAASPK
T2 sequence (P28472 26-473 partner): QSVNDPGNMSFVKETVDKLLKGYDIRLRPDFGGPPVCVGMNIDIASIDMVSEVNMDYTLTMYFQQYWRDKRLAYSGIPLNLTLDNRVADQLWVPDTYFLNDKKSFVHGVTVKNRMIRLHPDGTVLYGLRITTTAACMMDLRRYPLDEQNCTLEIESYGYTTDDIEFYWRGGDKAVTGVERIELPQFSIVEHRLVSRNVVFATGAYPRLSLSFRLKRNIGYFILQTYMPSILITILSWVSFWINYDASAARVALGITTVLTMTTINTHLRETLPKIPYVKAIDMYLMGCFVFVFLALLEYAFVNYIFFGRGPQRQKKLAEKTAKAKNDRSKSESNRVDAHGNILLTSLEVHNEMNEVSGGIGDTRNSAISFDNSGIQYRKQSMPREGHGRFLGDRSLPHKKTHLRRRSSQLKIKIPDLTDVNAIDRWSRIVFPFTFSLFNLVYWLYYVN
T2 sequence (P18507 40-475): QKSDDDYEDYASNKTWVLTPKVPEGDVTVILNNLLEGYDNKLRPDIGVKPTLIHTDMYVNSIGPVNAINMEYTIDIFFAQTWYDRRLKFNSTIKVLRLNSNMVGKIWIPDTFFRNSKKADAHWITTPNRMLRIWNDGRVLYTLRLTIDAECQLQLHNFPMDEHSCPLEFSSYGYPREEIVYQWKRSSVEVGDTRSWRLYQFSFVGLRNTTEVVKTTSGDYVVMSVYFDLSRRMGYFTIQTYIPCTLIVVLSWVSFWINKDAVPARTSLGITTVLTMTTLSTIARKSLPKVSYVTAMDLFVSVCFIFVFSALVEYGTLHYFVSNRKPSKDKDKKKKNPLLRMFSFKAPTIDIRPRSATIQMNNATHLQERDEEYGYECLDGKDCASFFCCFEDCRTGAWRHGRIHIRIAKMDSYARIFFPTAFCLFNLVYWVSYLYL
T3 sequence (P31644 32-462): as the sequence (P31644 32-462) above
T3 sequence (P28472 26-473 partner): as the sequence (P28472 26-473 partner) above
T3 sequence (P18507 40-475): as the sequence (P18507 40-475) above
T1 sequence (P31644 32-462): as the sequence (P31644 32-462) above
T1 sequence (P28472 26-473 partner): as the sequence (P28472 26-473 partner) above
T1 sequence (P18507 40-475): as the sequence (P18507 40-475) above

Ki [1] [nM]	α5-GABAAR Relative Efficacy (to DMCM), Qpatch ([2]; Conc 1 μM)	α5-GABAAR Relative Efficacy (to DMCM), SyncroPatch [3]	α5-GABAAR Relative Efficacy (to DMCM), Qpatch ([2]; Conc 0.1 μM)	α5-GABAAR Relative Efficacy (to DMCM), Qpatch ([2]; Conc 0.3 μM)	α5-GABAAR Relative Efficacy (to DMCM), Qpatch ([2]; Conc 3 μM)	SMILES
9.2	−0.82	−0.81				COc1nc(-c2ccn3nc(N)nc3c2)ccc1NC(=O)c1c(C)nnn1-c1ccccc1 [Example 159, N-(6-(2-Amino-[1,2,4]triazolo[1,5-a]pyridin-7-yl)-2-methoxypyridin-3-yl)-4-methyl-1-phenyl-1H-1,2,3-triazole-5-carboxamide]
0.5		−0.90	−0.76			COc1nc(-c2cnc(N)nc2)ccc1NC(=O)c1c(-c2ccccc2)noc1C [Example 43, N-[6-(2-Aminopyrimidin-5-yl)-2-methoxy-3-pyridyl]-5-methyl-3-phenyl-isoxazole-4-carboxamide]
0.8		−1.00	−0.81			CNc1ncc(-c2ccc(NC(=O)c3c(-c4ccccc4)noc3C)c(OC)n2)cn1 [Example 47, N-[2-Methoxy-6-[2-(methylamino)pyrimidin-5-yl]-3-pyridyl]-5-methyl-3-phenyl-isoxazole-4-carboxamide]
13		−0.50			−0.71	COc1nc(-c2cnn3ncccc23)ccc1NC(=O)c1c(-c2ccccc2)noc1C [Example 83, N-(2-Methoxy-6-(pyrazolo[1,5-b]pyridazin-3-yl)pyridin-3-yl)-5-methyl-3-phenylisoxazole-4-carboxamide]
3.2	−0.66	−0.56				COc1nc(-c2cnoc2)ccc1NC(=O)c1c(-c2ccccc2)noc1C [Example 68, N-(6-Isoxazol-4-yl-2-methoxy-3-pyridyl)-5-methyl-3-phenyl-isoxazole-4-carboxamide]
1.7		−1.03		−0.55		Cc1onc(-c2ccccc2)c1C(=O)Nc1ccc(-n2ccnc2)nc1OC(C)C [Example 206, N-(6-(1H-Imidazol-1-yl)-2-isopropoxypyridin-3-yl)-5-methyl-3-phenylisoxazole-4-carboxamide]
2.1		−0.62		−1.00		COc1nc(-c2cnc(CN(C)C)nc2)ccc1NC(=O)c1c(-c2ccccc2)noc1C [Example 74, N-[6-[2-[(Dimethylamino)methyl]pyrimidin-5-yl]-2-methoxy-3-pyridyl]-5-methyl-3-phenyl-isoxazole-4-carboxamide]
2.4		−0.83		−0.92		COc1nc(-c2cnc(C(F)(F)F)nc2)ccc1NC(=O)c1c(-c2ccccc2)noc1C [Example 53, N-[2-Methoxy-6-[2-(trifluoromethyl)pyrimidin-5-yl]-3-pyridyl]-5-methyl-3-phenyl-isoxazole-4-carboxamide]
1.7		−0.94		−0.92		COc1nc(-c2cnc(N3CCC(O)CC3)nc2)ccc1NC(=O)c1c(-c2ccccc2)noc1C [Example 85, N-(6-(2-(4-Hydroxypiperidin-1-yl)pyrimidin-5-yl)-2-methoxypyridin-3-yl)-5-methyl-3-phenylisoxazole-4-carboxamide]
0.3		−0.83	−0.56			Cc1onc(-c2ccccc2)c1C(=O)Nc1ccc(-c2cnc(CN)nc2)nc1OC(C)C [Example 207, N-(6-(2-(Aminomethyl)pyrimidin-5-yl)-2-isopropoxypyridin-3-yl)-5-methyl-3-phenylisoxazole-4-carboxamide hydrochloride]
0.6		−1.14	−0.94			COc1nc(-c2cnc(N)nc2)cnc1NC(=O)c1c(-c2ccccc2)noc1C [Example 67, N-[5-(2-Aminopyrimidin-5-yl)-3-methoxy-pyrazin-2-yl]-5-methyl-3-phenyl-isoxazole-4-carboxamide]
0.7		−0.72	−0.70			COc1nc(-c2cnc(OC3CNC3)nc2)ccc1NC(=O)c1c(-c2ccccc2)noc1C [Example 189, N-[6-[2-(Azetidin-3-yloxy)pyrimidin-5-yl]-2-methoxy-3-pyridyl]-5-methyl-3-phenyl-isoxazole-4-carboxamide]
23.5		−0.68			−0.71	COc1nc(-c2nnc3n2CCNC3)ccc1NC(=O)c1c(-c2ccccc2)noc1C [Example 196, N-(2-Methoxy-6-(5,6,7,8-tetrahydro-[1,2,4]triazolo[4,3-a]pyrazin-3-yl)pyridin-3-yl)-5-methyl-3-phenylisoxazole-4-carboxamide dihydrochloride]

SMILES	Ki [1] [nM]	α5-GABAAR Relative Efficacy (to DMCM), Qpatch ([2]; Conc 1 μM)	α5-GABAAR Relative Efficacy (to DMCM), SyncroPatch [3]	α5-GABAAR Relative Efficacy (to DMCM), Qpatch ([2]; Conc 0.1 μM)	α5-GABAAR Relative Efficacy (to DMCM), Qpatch ([2]; Conc 0.3 μM)	α5-GABAAR Relative Efficacy (to DMCM), Qpatch ([2]; Conc 3 μM)
COc1nc(-c2cnc(CN)nc2)cnc1NC(=O)c1c(-c2ccccc2)noc1C.Cl [Example 156, N-[5-[2-(Aminomethyl)pyrimidin-5-yl]-3-methoxy-pyrazin-2-yl]-5-methyl-3-phenyl-isoxazole-4-carboxamide hydrochloride]	2.7		−0.65		−0.91	
COc1nc(-n2cnc3c2CNCC3)ccc1NC(=O)c1c(-c2ccccc2)noc1C.Cl.Cl [Example 179, N-[2-Methoxy-6-(4,5,6,7-tetrahydroimidazo[4,5-c]pyridin-3-yl)-3-pyridyl]-5-methyl-3-phenyl-isoxazole-4-carboxamide dihydrochloride]	3		−0.38		−0.65	
COc1nc(-c2cnc(CN)nc2)ccc1NC(=O)c1c(-c2ccccc2)nnn1C.Cl [Example 180, N-(6-(2-(Aminomethyl)pyrimidin-5-yl)-2-methoxypyridin-3-yl)-1-methyl-4-phenyl-1H-1,2,3-triazole-5-carboxamide hydrochloride]	3.9	−0.63	−0.48			
COc1nc(-c2cnc(CN)nc2)ccc1NC(=O)c1c(-c2ccc(F)cc2)noc1C.Cl [Example 185, N-[6-[2-(Aminomethyl)pyrimidin-5-yl]-2-methoxy-3-pyridyl]-3-(4-fluorophenyl)-5-methyl-isoxazole-4-carboxamide hydrochloride]	0.5		−1.23	−0.79		
